From patent US9663496B2, “AMPK-activating heterocyclic compounds and methods for using the same” (Rigel Pharmaceuticals, Inc., priority 2010, dated 2017)

These compounds were tested against AMPK (assay: AMPK activation, enzyme-linked immunosorbent assay). Settings: EC50 for AMPK activation, ELISA.
Assay type: biochemical
How it was run: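 Compounds were tested for their capacity to activate the kinase using standard, commercially available kit reagents and procedures.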

Row | SMILES | EC50 [nM]
1 | O=C(Nc1ccc(Oc2ccc(F)cc2)nc1)c1ccc(C(=O)N2CCC(C(=O)c3ccc(F)c(F)c3)CC2)cn1 [Compound 330, 5-(4-(3,4-difluorobenzoyl)piperidine-1-carbonyl)-N-(6-(4-fluorophenoxy)pyridin-3-yl)picolinamide] | 500 to 1000
2 | N#Cc1ccc(OC2CCN(C(=O)c3ccc(C(=O)NC4CCNCC4)cn3)CC2)cc1 [Compound 335, 6-(4-(4-cyanophenoxy)piperidine-1-carbonyl)-N-(piperidin-4-yl)nicotinamide] | > 10000
3 | N#Cc1ccc(OC2CCN(C(=O)c3ccc(C(=O)NC4CCN(Cc5ccc(N6CCOCC6)cc5)CC4)cn3)CC2)cc1 [Compound 337, 6-(4-(4-cyanophenoxy)piperidine-1-carbonyl)-N-(1-(4-morpholinobenzyl)piperidin-4-yl)nicotinamide] | < 500
4 | N#Cc1ccc(CN2CCC(NC(=O)c3ccc(C(=O)N4CCN(c5ccc(C(F)(F)F)cc5)CC4)cn3)CC2)cc1 [Compound 339, N-(1-(4-cyanobenzyl)piperidin-4-yl)-5-(4-(4-(trifluoromethyl)phenyl)piperazine-1-carbonyl)picolinamide] | < 500
5 | N#Cc1ccc(CN2CCC(NC(=O)c3ccc(C(=O)N4CCN(c5ccc(C#N)cc5)CC4)cn3)CC2)cc1 [Compound 340, N-(1-(4-cyanobenzyl)piperidin-4-yl)-5-(4-(4-cyanophenyl)piperazine-1-carbonyl)picolinamide] | < 500
6 | N#Cc1ccc(CN2CCC(NC(=O)c3ccc(C(=O)N4CCN(c5ccc(F)cc5)CC4)cn3)CC2)cc1 [Compound 341, N-(1-(4-cyanobenzyl)piperidin-4-yl)-5-(4-(4-fluorophenyl)piperazine-1-carbonyl)picolinamide] | < 500
7 | O=C(Nc1ccc(Oc2ccc(F)cc2)nc1)c1ccc(C(=O)N2CCC(C(=O)c3ccc(F)cc3F)CC2)cn1 [Compound 342, 5-(4-(2,4-difluorobenzoyl)piperidine-1-carbonyl)-N-(6-(4-fluorophenoxy)pyridin-3-yl)picolinamide] | < 500
8 | O=C(Nc1ccc(Oc2ccc(F)cc2)nc1)c1ccc(C(=O)N2CCC(Oc3ccc(F)cc3F)CC2)nc1 [Compound 343, 6-(4-(2,4-difluorophenoxy)piperidine-1-carbonyl)-N-(6-(4-fluorophenoxy)pyridin-3-yl)nicotinamide] | < 500
9 | COc1ccc(CN2CCC(NC(=O)c3ccc(C(=O)N4CCC(Oc5ccc(F)cc5F)CC4)nc3)CC2)cc1 [Compound 344, 6-(4-(2,4-difluorophenoxy)piperidine-1-carbonyl)-N-(1-(4-methoxybenzyl)piperidin-4-yl)nicotinamide] | < 500
10 | N#Cc1ccc(CN2CCC(NC(=O)c3ccc(C(=O)N4CCC(Oc5ccc(F)cc5F)CC4)nc3)CC2)cc1 [Compound 345, N-(1-(4-cyanobenzyl)piperidin-4-yl)-6-(4-(2,4-difluorophenoxy)piperidine-1-carbonyl)nicotinamide] | < 500
11 | N#Cc1ccc(CN2CCC(NC(=O)c3ccc(C(=O)N4CCC(C(=O)c5ccc(F)cc5F)CC4)nc3)CC2)cc1 [Compound 346, N-(1-(4-cyanobenzyl)piperidin-4-yl)-6-(4-(2,4-difluorobenzoyl)piperidine-1-carbonyl)nicotinamide] | < 500
12 | COc1ccc(CN2CCC(NC(=O)c3ccc(C(=O)N4CCC(C(=O)c5ccc(F)cc5F)CC4)nc3)CC2)cc1 [Compound 347, 6-(4-(2,4-difluorobenzoyl)piperidine-1-carbonyl)-N-(1-(4-methoxybenzyl)piperidin-4-yl)nicotinamide] | < 500
13 | O=C(Nc1ccc(Oc2ccc(F)cc2)nc1)c1ccc(C(=O)N2CCC(C(=O)c3ccc(F)cc3F)CC2)nc1 [Compound 348, 6-(4-(2,4-difluorobenzoyl)piperidine-1-carbonyl)-N-(6-(4-fluorophenoxy)pyridin-3-yl)nicotinamide] | < 500
14 | N#Cc1ccc(CN2CCC(NC(=O)c3ccc(N4CCC(Oc5ccc(C#N)cc5)CC4)nn3)CC2)cc1 [Compound 351, N-(1-(4-cyanobenzyl)piperidin-4-yl)-6-(4-(4-cyanophenoxy)piperidin-1-yl)pyridazine-3-carboxamide] | < 500
15 | N#Cc1ccc(OC2CCN(C(=O)c3ccc(C(=O)NC4CCN(Cc5nccs5)CC4)cn3)CC2)cc1 [Compound 356, 6-(4-(4-cyanophenoxy)piperidine-1-carbonyl)-N-(1-(thiazol-2-ylmethyl)piperidin-4-yl)nicotinamide] | < 500

Further lines, results first:

Row | EC50 [nM] | SMILES
16 | < 500 | COc1ccc(C(=O)C2CCN(C(=O)c3ccc(C(=O)NC4CCC(Oc5ccc(C#N)cc5)CC4)cn3)CC2)cc1 (stereo not shown) [Compound 315, N-((1s,4s)-4-(4-cyanophenoxy)cyclohexyl)-6-(4-(4-methoxybenzoyl)piperidine-1-carbonyl)nicotinamide]
17 | < 500 | COc1ccc(C(=O)C2CCN(C(=O)c3ccc(C(=O)N[C@H]4CC[C@@H](Oc5ccc(F)cc5)CC4)cn3)CC2)cc1 [Compound 316, N-((cis)-4-(4-fluorophenoxy)cyclohexyl)-6-(4-(4-methoxybenzoyl)piperidine-1-carbonyl)nicotinamide]
18 | < 500 | COc1ccc(C(=O)C2CCN(C(=O)c3ccc(C(=O)NC4CCN(Cc5ccc(F)cc5)CC4)cn3)CC2)cc1 [Compound 317, N-(1-(4-fluorobenzyl)piperidin-4-yl)-6-(4-(4-methoxybenzoyl)piperidine-1-carbonyl)nicotinamide]
19 | < 500 | COc1ccc(CN2CCC(NC(=O)c3ccc(C(=O)N4CCC(C(=O)c5ccc(OC)cc5)CC4)nc3)CC2)cc1 [Compound 318, 6-(4-(4-methoxybenzoyl)piperidine-1-carbonyl)-N-(1-(4-methoxybenzyl)piperidin-4-yl)nicotinamide]
20 | < 500 | COc1ccc(CN2CCC(NC(=O)c3ccc(C(=O)N4CCC(Oc5ccc(C#N)cc5)CC4)nc3)CC2)cc1 [Compound 319, 6-(4-(4-cyanophenoxy)piperidine-1-carbonyl)-N-(1-(4-methoxybenzyl)piperidin-4-yl)nicotinamide]
21 | < 500 | N#Cc1ccc(OC2CCN(C(=O)c3ccc(C(=O)N[C@H]4CC[C@@H](Oc5ccc(C#N)cc5)CC4)cn3)CC2)cc1 [Compound 321, N-((cis)-4-(4-cyanophenoxy)cyclohexyl)-6-(4-(4-cyanophenoxy)piperidine-1-carbonyl)nicotinamide]
22 | < 500 | N#Cc1ccc(OC2CCN(C(=O)c3ccc(C(=O)NC4CCN(Cc5cc(F)cc(F)c5)CC4)cn3)CC2)cc1 [Compound 322, 6-(4-(4-cyanophenoxy)piperidine-1-carbonyl)-N-(1-(3,5-difluorobenzyl)piperidin-4-yl)nicotinamide]
23 | < 500 | N#Cc1ccc(CN2CCC(NC(=O)c3ccc(C(=O)N4CCC(Oc5ccc(C#N)cc5)CC4)nc3)CC2)cc1 [Compound 323, N-(1-(4-cyanobenzyl)piperidin-4-yl)-6-(4-(4-cyanophenoxy)piperidine-1-carbonyl)nicotinamide]
24 | < 500 | N#Cc1ccc(OC2CCN(C(=O)c3ccc(C(=O)N[C@H]4CC[C@@H](Oc5ccc(F)cc5)CC4)cn3)CC2)cc1 [Compound 324, 6-(4-(4-cyanophenoxy)piperidine-1-carbonyl)-N-((cis)-4-(4-fluorophenoxy)cyclohexyl)nicotinamide]
25 | < 500 | COc1ccc(C(=O)C2CCN(C(=O)c3ccc(C(=O)Nc4ccc(Oc5ccc(F)cc5)nc4)cn3)CC2)cc1 [Compound 325, N-(6-(4-fluorophenoxy)pyridin-3-yl)-6-(4-(4-methoxybenzoyl)piperidine-1-carbonyl)nicotinamide]
26 | < 500 | N#Cc1ccc(OC2CCN(C(=O)c3ccc(C(=O)Nc4ccc(Oc5ccc(F)cc5)nc4)cn3)CC2)cc1 [Compound 326, 6-(4-(4-cyanophenoxy)piperidine-1-carbonyl)-N-(6-(4-fluorophenoxy)pyridin-3-yl)nicotinamide]
27 | < 500 | COc1ccc(CN2CCC(NC(=O)c3ccc(C(=O)N4CCN(Cc5ccc(F)cc5)CC4)nc3)CC2)cc1 [Compound 327, 6-(4-(4-fluorobenzyl)piperazine-1-carbonyl)-N-(1-(4-methoxybenzyl)piperidin-4-yl)nicotinamide]
28 | < 500 | O=C(NC1CCN(Cc2ccc(F)cc2)CC1)c1ccc(C(=O)N2CCN(Cc3ccc(F)cc3)CC2)nc1 [Compound 328, 6-(4-(4-fluorobenzyl)piperazine-1-carbonyl)-N-(1-(4-fluorobenzyl)piperidin-4-yl)nicotinamide]
29 | < 500 | COc1ccc(CN2CCC(NC(=O)c3ccc(C(=O)N4CCC(C(=O)c5ccc(F)c(F)c5)CC4)cn3)CC2)cc1 [Compound 329, 5-(4-(3,4-difluorobenzoyl)piperidine-1-carbonyl)-N-(1-(4-methoxybenzyl)piperidin-4-yl)picolinamide]
30 | < 500 | COc1ccc(CN2CCC(NC(=O)c3ccc(C(=O)N4CCC(C(=O)c5ccc(F)cc5F)CC4)cn3)CC2)cc1 [Compound 331, 5-(4-(2,4-difluorobenzoyl)piperidine-1-carbonyl)-N-(1-(4-methoxybenzyl)piperidin-4-yl)picolinamide]
31 | < 500 | N#Cc1ccc(O[C@H]2CC[C@@H](NC(=O)c3ccc(C(=O)N4CCN(Cc5ccc(F)cc5)CC4)nc3)CC2)cc1 [Compound 332, N-((cis)-4-(4-cyanophenoxy)cyclohexyl)-6-(4-(4-fluorobenzyl)piperazine-1-carbonyl)nicotinamide]
32 | < 500 | CC(C)(C)OC(=O)N1CCC(NC(=O)c2ccc(C(=O)N3CCC(Oc4ccc(C#N)cc4)CC3)nc2)CC1 [Compound 333, tert-butyl 4-(6-(4-(4-cyanophenoxy)piperidine-1-carbonyl)nicotinamido)piperidine-1-carboxylate]
33 | < 500 | O=C(Nc1ccc(Oc2ccc(F)cc2)nc1)c1ccc(C(=O)N2CCN(Cc3ccc(F)cc3)CC2)nc1 [Compound 334, 6-(4-(4-fluorobenzyl)piperazine-1-carbonyl)-N-(6-(4-fluorophenoxy)pyridin-3-yl)nicotinamide]
34 | < 500 | N#Cc1ccc(OC2CCN(C(=O)c3ccc(C(=O)NC4CCN(Cc5ccc(N6CCCC6)cc5)CC4)cn3)CC2)cc1 [Compound 336, 6-(4-(4-cyanophenoxy)piperidine-1-carbonyl)-N-(1-(4-(pyrrolidin-1-yl)benzyl)piperidin-4-yl)nicotinamide]
